Assay results reported in patent publication US20110021487A1, “CYCLOALKOXY-SUBSTITUTED 4-PHENYL-3,5-DICYANOPYRIDINES AND THEIR USE” (BAYER SCHERING PHARMA AKTIENGESELLSCHAFT, priority 2008, published 2011).
pEC50: −log10 of the molar value.

Columns and labels:
Format in all cases: cell-based
[1] = biological target: T1, adenosine A2b receptor (Homo sapiens, UniProt P29275); test: Indirect determination of adenosine agonism by gene expression (luciferase reporter), A2b cells; settings: CHO cells stably transfected with A2b receptor cDNA; 50% of maximum stimulation
T1 construct: expressed in transfected cells; host or cells: CHO (Chinese Hamster Ovary)
T1 sequence (P29275 1-332): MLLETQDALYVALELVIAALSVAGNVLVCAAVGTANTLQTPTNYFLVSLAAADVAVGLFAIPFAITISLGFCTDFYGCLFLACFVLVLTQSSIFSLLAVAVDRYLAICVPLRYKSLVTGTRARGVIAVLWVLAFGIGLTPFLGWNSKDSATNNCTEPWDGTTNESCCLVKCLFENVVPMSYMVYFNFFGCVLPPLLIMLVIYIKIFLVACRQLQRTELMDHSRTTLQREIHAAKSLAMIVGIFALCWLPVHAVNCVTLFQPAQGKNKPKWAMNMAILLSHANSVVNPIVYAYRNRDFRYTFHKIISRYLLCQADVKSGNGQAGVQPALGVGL
From the text: (§1) Cells of the CHO (Chinese Hamster Ovary) permanent cell line are transfected stably with the cDNA for the adenosine receptor subtypes A1, A2a and A2b. The adenosine A1 receptors are coupled to the adenylate cyclase by way of Gi proteins, while the adenosine A2a and A2b receptors are coupled by way of Gs proteins. In correspondence with this, the formation of cAMP in the cell is inhibited or stimulated, respectively. After that, expression of the luciferase is modulated by way of a cAMP-dependent promoter. The luciferase test is optimized, with the aim of high sensitivity and reproducibility, low variance and good suitability for implementation on a robot system, by varying several test parameters, such as cell density, duration of the growth phase and the test incubation, forskolin concentration and medium composition. The following test protocol is used for pharmacologically characterizing cells and for the robot-assisted substance screening:
(§2) The stock cultures are grown, at 37° C. and under 5% CO2, in DMEM/F12 medium containing 10% FCS (fetal calf serum) and in each case split 1:10 after 2-3 days. The test cultures are seeded in 384-well plates with 2000 cells per well and grown at 37° C. for approx. 48 hours. The medium is then replaced with a physiological sodium chloride solution (130 mM sodium chloride, 5 mM potassium chloride, 2 mM calcium chloride, 20 mM HEPES, 1 mM magnesium chloride hexahydrate, 5 mM sodium bicarbonate, pH 7.4). The substances to be tested, which are dissolved in DMSO, are pipetted into the test cultures (maximum final concentration of DMSO in the test mixture: 0.5%) in a dilution series of from 5×10^−11M to 3×10^−6M (final concentration). 10 minutes later, forskolin is added to the A1 cells and all the cultures are subsequently incubated at 37° C. for four hours. After that, 35 μl of a solution which is composed of 50% lysis reagent (30 mM disodium hydrogenphosphate, 10% glycerol, 3% TritonX100, 25 mM TrisHCl, 2 mM dithiotreitol (DTT), pH 7.8) and 50% luciferase substrate solution (2.5 mM ATP, 0.5 mM luciferin, 0.1 mM coenzyme A, 10 mM tricine, 1.35 mM magnesium sulfate, 15 mM DTT, pH 7.8) are added to the test cultures, which are shaken for approx. 1 minute and the luciferase activity is measured using a camera system. The EC50 values are determined, i.e., the concentrations at which 50% of the luciferase answer is inhibited in the case of the A1 cell, and, respectively, 50% of the maximum stimulation with the corresponding substance is achieved in the case of the A2b and A2a cells. […] Pharmacol., 357 (1998), 1-9].

[2] = biological target: T2, adenosine A1 receptor (Homo sapiens, UniProt P30542); test: Indirect determination of adenosine agonism by gene expression (luciferase reporter), A1 cells; settings: CHO cells stably transfected with A1 receptor cDNA; 1 μM forskolin; 50% inhibition of luciferase answer
T2 construct: expressed in transfected cells; host or cells: CHO (Chinese Hamster Ovary)
T2 sequence (P30542 1-326): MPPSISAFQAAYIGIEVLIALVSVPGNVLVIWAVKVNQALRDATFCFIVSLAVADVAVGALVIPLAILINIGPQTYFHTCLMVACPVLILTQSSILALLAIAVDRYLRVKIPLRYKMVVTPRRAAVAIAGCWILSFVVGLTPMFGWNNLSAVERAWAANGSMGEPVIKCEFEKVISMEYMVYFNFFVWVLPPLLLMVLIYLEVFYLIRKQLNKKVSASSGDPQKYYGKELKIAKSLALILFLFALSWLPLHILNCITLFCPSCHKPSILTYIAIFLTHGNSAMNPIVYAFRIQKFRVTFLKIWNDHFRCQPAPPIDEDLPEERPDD
From the text: as §1, §2

[3] = biological target: T3, adenosine A2a receptor (Homo sapiens, UniProt P29274); test: Indirect determination of adenosine agonism by gene expression (luciferase reporter), A2a cells; settings: CHO cells stably transfected with A2a receptor cDNA; 50% of maximum stimulation
T3 construct: expressed in transfected cells; host or cells: CHO (Chinese Hamster Ovary)
From the text: as §1, §2

T3 sequence (P29274 whole entry): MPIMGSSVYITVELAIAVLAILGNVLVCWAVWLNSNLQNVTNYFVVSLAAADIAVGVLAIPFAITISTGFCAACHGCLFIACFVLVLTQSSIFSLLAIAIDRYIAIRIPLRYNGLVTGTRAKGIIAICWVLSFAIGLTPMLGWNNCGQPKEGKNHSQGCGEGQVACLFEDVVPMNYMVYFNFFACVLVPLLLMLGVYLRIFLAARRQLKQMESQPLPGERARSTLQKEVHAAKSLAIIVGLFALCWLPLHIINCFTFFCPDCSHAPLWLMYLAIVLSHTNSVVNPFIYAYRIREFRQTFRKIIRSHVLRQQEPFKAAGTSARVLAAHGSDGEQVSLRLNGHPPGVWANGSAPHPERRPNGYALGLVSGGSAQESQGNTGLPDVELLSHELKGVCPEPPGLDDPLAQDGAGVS

pEC50 [1] | EC50 [2] | pEC50 [3] | Structure (SMILES)
8.37 | 265 nM |  | N#Cc1c(N)nc(SCc2c[nH]cn2)c(C#N)c1-c1ccc(O[C@H]2CCCC[C@@H]2O)cc1 [Example 10]
8.41 | 104 nM |  | N#Cc1c(N)nc(SCc2csc(N)n2)c(C#N)c1-c1ccc(O[C@H]2CCCC[C@@H]2O)cc1 [Example 9]
8.62 | 6.9 nM | 6.30 | N#Cc1c(N)nc(SCc2cccnc2)c(C#N)c1-c1ccc(O[C@H]2CCCC[C@@H]2O)cc1 [Example 8]
6.00 | 0.63 nM | 6.04 | N#Cc1c(N)nc(SCc2cccc(C(N)=O)c2)c(C#N)c1-c1ccc(OC2CCOC2)c(F)c1 (stereo not shown) [Example 58]
8.16 | 168 nM | 6.29 | N#Cc1ccccc1CSc1nc(N)c(C#N)c(-c2ccc(O[C@H]3CCCC[C@@H]3O)cc2)c1C#N (single isomer, unassigned) [Example 23, ent-trans-2-Amino-6-[(2-cyanobenzyl)sulfanyl]-4-(4-{[2-hydroxycyclohexyl]oxy}-phenyl)pyridine-3,5-dicarbonitrile]
 | 0.18 nM | 5.90 | N#Cc1c(SCc2csc(-c3ccc(Cl)cc3)n2)nc(N2CC(O)C2)c(C#N)c1-c1ccc(O[C@H]2COC[C@@H]2O)cc1 (single isomer, unassigned) [Example 29, ent-trans-2-({[2-(4-Chlorophenyl)-1,3-thiazol-4-yl]methyl}sulfanyl)-6-(3-hydroxyazetidin-1-yl)-4-(4-{[4-hydroxytetrahydrofuran-3-yl]oxy}phenyl)pyridine-3,5-dicarbonitrile]
6.14 | 0.86 nM | 6.84 | N#Cc1c(N)nc(SCc2ccccn2)c(C#N)c1-c1ccc(O[C@H]2COC[C@@H]2O)cc1 (single isomer, unassigned) [Example 32, ent-trans-2-Amino-4-(4-{[4-hydroxytetrahydrofuran-3-yl]oxy}phenyl)-6-[(pyridin-2-ylmethyl)thio]pyridine-3,5-dicarbonitrile]
 | 4.1 nM |  | COC(=O)c1cccc(C(C)Sc2nc(N)c(C#N)c(-c3ccc(OC4CCOC4)cc3)c2C#N)c1 (single isomer, unassigned; ent-3) [Example 64, Methyl ent-3-[1-({6-amino-3,5-dicyano-4-[4-(tetrahydrofuran-3-yloxy)phenyl]pyridin-2-yl}sulfanyl)ethyl]benzoate]
 | 0.14 nM | 6.30 | N#Cc1c(N)nc(SCc2csc(-c3ccc(Cl)cc3)n2)c(C#N)c1-c1ccc(O[C@H]2COC[C@@H]2O)cc1 (racemic) [Example 24, rac-trans-2-Amino-6-({[2-(4-chlorophenyl)-1,3-thiazol-4-yl]methyl}thio)-4-(4-{[4-hydroxytetrahydrofuran-3-yl]oxy}phenyl)pyridine-3,5-dicarbonitrile]
7.37 | 0.56 nM | 6.06 | N#Cc1c(N)nc(SCc2csc(Nc3ccc(F)cc3)n2)c(C#N)c1-c1ccc(O[C@H]2COC[C@@H]2O)cc1 (single isomer, unassigned) [Example 35, ent-trans-2-Amino-6-[({2-[(4-fluorophenyl)amino]-1,3-thiazol-4-yl}methyl)thio]-4-(4-{[4-hydroxytetrahydrofuran-3-yl]oxy}phenyl)pyridine-3,5-dicarbonitrile]
6.27 | 0.16 nM | 6.37 | N#Cc1c(N)nc(SCc2cccc(C(N)=O)c2)c(C#N)c1-c1ccc(OC2CCOC2)cc1 (stereo not shown) [Example 43]
7.80 | 56 nM | 5.72 | N#Cc1c(N)nc(SCc2cscn2)c(C#N)c1-c1ccc(O[C@H]2CCCC[C@@H]2O)cc1 [Example 14]
6.25 | 0.78 nM | 5.96 | N#Cc1c(N)nc(SCc2csc(C(N)=O)n2)c(C#N)c1-c1ccc(OC2CCOC2)cc1 (racemic) [Example 50, rac-4-[({6-Amino-3,5-dicyano-4-[4-(tetrahydrofuran-3-yloxy)phenyl]pyridin-2-yl}sulfanyl)methyl]-1,3-thiazole-2-carboxamide]
6.63 | 0.08 nM | 7.16 | CNC(=O)c1cc(CSc2nc(N)c(C#N)c(-c3ccc(OC4CCOC4)cc3)c2C#N)ccn1 (stereo not shown) [Example 44]
6.75 | 0.51 nM | 6.58 | CNC(=O)c1nc(CSc2nc(N)c(C#N)c(-c3ccc(OC4CCOC4)cc3)c2C#N)cs1 (racemic) [Example 51, rac-4-[({6-Amino-3,5-dicyano-4-[4-(tetrahydrofuran-3-yloxy)phenyl]pyridin-2-yl}sulfanyl)methyl]-N-methyl-1,3-thiazole-2-carboxamide]
 | 0.22 nM | 6.11 | Cc1oc(-c2ccc(C(=O)O)cc2)nc1CSc1nc(N)c(C#N)c(-c2ccc(OC3CCOC3)cc2)c1C#N (racemic) [Example 49, rac-4-{4-[({6-Amino-3,5-dicyano-4-[4-(tetrahydrofuran-3-yloxy)phenyl]pyridin-2-yl}thio)methyl]-5-methyl-1,3-oxazol-2-yl}benzoic acid]
7.96 | 2.9 nM | 6.32 | N#Cc1c(N)nc(SCc2cccnc2)c(C#N)c1-c1ccc(O[C@H]2CCC[C@H]2O)cc1 (racemic) [Example 41, rac-cis-2-Amino-4-(4-{[2-hydroxycyclopentyl]oxy}phenyl)-6-[(pyridin-3-ylmethyl)sulfanyl]pyridine-3,5-dicarbonitrile]
5.75 | 0.53 nM |  | CC(Sc1nc(N)c(C#N)c(-c2ccc(OC3CCOC3)cc2)c1C#N)c1cccc(C(N)=O)c1 (single isomer, unassigned; ent-3) [Example 66, ent-3-[1-({6-Amino-3,5-dicyano-4-[4-(tetrahydrofuran-3-yloxy)phenyl]pyridin-2-yl}-sulfanyl)ethyl]benzamide]
